# In paper PMC5838106, “Cathelicidin promotes inflammation by enabling binding of self-RNA to cell surface scavenger receptors” (Scientific Reports, 2018):
# Legend:
# Type in all cases: cell-based, human
# [1] = test system: NHEKs; test: Cytokine mRNA expression in NHEKs stimulated with cathelicidin peptide and dsRNA (quantitative real-time PCR); conditions: for inhibition of the expression of inflammatory cytokines induced by LL37 and U1 RNA: MDC 200 μM, Pitstop-2 25 μM, dynasore 80 μM for 30 minutes
# [2] = test system: scavenger receptors; test: Proximity ligation assay between U1 RNA and the indicated scavenger receptors; conditions: NHEKs, 4 °C, 1 hour; Fig. 3d
# Description: Figure 3 Cathelicidin enables dsRNA to associate with scavenger receptors. (a) Proximity ligation assay for SR-B1 and U1 RNA. NHEKs were cultured with various cathelicidin peptides (2.5 μM) for 10 minutes, then with biotinylated U1 RNA (2.5 μg/mL) at 4 °C for 1 hour before physical proximity of SR-B1 and U1 RNA was determined using a fluorescence-based PLA that produces a red fluorescent signal. Nuclei (blue) are counterstained with DAPI. Scale bar represents 10 μm. (b) Signal count of (a) in 5 visual fields. (c) Proximity ligation assay as in (a) but reaction is detecting proximity of LL37 and SR-A6. Scale bar represents 100 μm. (d) Signal count of proximity ligation assay performed as in (a), but between U1 RNA and the indicated scavenger receptors, each count is PLA complexes observed in 5 visual fields. (e) Skin sections from healthy subject (control), or lesional skin from a psoriasis patient (Psoriasis) were fixed and PLA performed for LL37 and SR-B1. […]
# NHEKs seeded into 8 chamber slides (Thermo Fisher Scientific) were incubated with various combination of U1 RNA, poly(I:C), cathelicidin peptides, and fucoidan for 1 hour at 4 °C allowing binding, but not internalization. […] Fluorescent PLA signals were evaluated using fluorescence microscopy (described above). Signals are counted by Duolink ImageTool software version 1.0.1.2 (Sigma-aldrich).
# [3] = test system: THP1 cells; test: Cytokine expression in PMA-treated THP1 cells stimulated with cathelicidin peptide and U1 RNA; conditions: PMA-treated THP1; MDC 200 μM, Pitstop-2 25 μM, dynasore 80 μM for 30 minutes, LL37 3 μM and U1 RNA 12.5 μg/mL overnight; n = 3
# Description: Figure 1 Inflammatory activity of cathelicidin can be dissociated from antimicrobial function (a) Transcriptomic analysis by RNASeq of primary cultures of normal human epidermal keratinocytes (NHEKs) treated with LL37 (2.5 μM) with or without U1 RNA (2.5 μg/mL) for 24 hours. Shown are gene sets induced > 2 fold over vehicle, and after treatment with LL37, U1 RNA, or the combination of LL37 + U1 RNA. (b) Gene Ontology analysis of gene sets from (a). The number of genes related to each biological process is indicated in parentheses. (c) Amino acid sequence of synthetic cathelicidin peptides used in this study. (d) Antimicrobial assay of cathelicidin peptides against group A streptococcus (GAS). GAS were incubated with various concentrations of each peptide (0–25 μM) for 6 hours, then surviving colonies counted after plating on Todd Hewitt Broth gel. (e) IFN-β1 mRNA abundance and (f) IL-6 mRNA abundance in NHEKs after treatment with cathelicidin peptides (2.5 μM) for 10 minutes, then stimulated with U1 RNA (2.5 μg/mL) for a further 6 hours. (n = 3). (g) IFN-β1 mRNA abundance and (h) IL-6 mRNA abundance in […] (PMA)-treated THP1 cells after treatment with cathelicidin peptides (3 μM) for 10 minutes, then stimulated with U1 RNA (12.5 μg/mL) overnight. (n = 3). Data presented are from one representative experiment of at least two independent experiments. Error bars are SEM of three biological replicates. *P < 0.05, **P < 0.01, ***P < 0.001 by two-way ANOVA with Bonferroni’s post-hoc test. See also Fig. S1.
# Primary neonatal human epidermal keratinocytes (NHEKs) was purchased from ThermoFisher Scientific. NHEKs were grown in serum free EpiLife medium supplemented with 0.06 mM CaCl2, EpiLife Defined growth supplements (EDGS) (ThermoFisher Scientific) and antibiotics, and passage 3–5 cells were used for experiment. Cells at 60–80% confluence were starved overnight without EDGS prior to treatment. THP1 was purchased from American Type Culture Collection (ATCC) (Manassas, VA). THP1 was cultured in RPMI-1640 (Sigma) supplemented with 10% Hyclone fetal calf serum (Thermofisher Scientific), and antibiotics, and passage 3–5 cells were used for experiment. Cells at 60–80% confluence were differentiated by Phorbol 12-myristate 13-acetate (PMA, Sigma) for 24 hours and then starved overnight without Hyclone fetal calf serum prior to treatment.
# RNA was isolated from NHEKs using Purelink RNA isolation columns (ThermoFisher Scientific) according to the manufacturer’s instructions. RNA was quantified using a Nanodrop spectrophotometer (ThermoFisher Scientific), and up to 500 ng of RNA was reverse-transcribed using the iScript cDNA synthesis kit (Bio-Rad, Irvine, CA). Quantitative real-time PCR reactions were run on a CFX96 real-time detection system (Bio-Rad) using gene-specific primers and TaqMan probes (ThermoFisher Scientific). PCR primers and probes are shown on Table S2.
# [4] = LL37 2.5 μM and U1 RNA 2.5 μg/mL 6 hours, n = 3
Compound,inhibition of the expression of inflammatory cytokines induced by LL37 and U1 RNA [3],"inhibition of the expression of inflammatory cytokines induced by LL37 and U1 RNA [1, 4]",also measured
Fucoidan,,,"inhibition of the capacity of LL37 to induce cytokines combined with U1 RNA ([1]; various concentrations of fucoidan, LL37 2.5 μM and U1 RNA 2.5 μg/mL 6 hours): potently inhibited; inhibition of the capacity of LL37 to induce cytokines combined with poly(I:C) ([1]; various concentrations of fucoidan, LL37 2.5 μM and poly(I:C) 0.3 μg/mL 6 hours): potently inhibited; effect on LL37-dependent binding of U1 RNA to scavenger receptors (PLA) [2]: significantly diminished binding"
pertussis toxin,,,"effect on expression of IL-6 induced by LL37 and U1 RNA ([1]; pertussis toxin 0.5 μg/mL or WRW4 1 μM for 1 hour, then LL37 2.5 μM and U1 RNA 2.5 μg/mL 6 hours, n = 3): did not decrease"
"CN(C)c1cccc2c(S(=O)(=O)NCCCCCN)cccc12 [MDC, Monodansylcadaverine]",significant inhibition,significant inhibition,
O=C(N/N=C/c1ccc(O)c(O)c1)c1cc2ccccc2cc1O [dynasore],significant inhibition,significant inhibition,
O=C1NC(=NS(=O)(=O)c2cccc3ccccc23)S/C1=C\c1ccc(Br)cc1 [Pitstop-2^TM],significant inhibition,significant inhibition,
Oc1ccc2ccccc2c1SSc1c(O)ccc2ccccc12 [IPA-3],,,"effect on IFN-β1 and IL-6 expression induced by LL37 and U1 RNA ([1]; IPA-3 2.8 nM for 30 minutes, LL37 2.5 μM and U1 RNA 2.5 μg/mL 6 hours, n = 3): did not inhibit"
